Test results: ChEMBL document CHEMBL5325491, “Small-Molecule Hydrophobic Tagging: A Promising Strategy of Druglike Technology for Targeted Protein Degradation” (J Med Chem, 2023)
Starred links: 1 amine or outer side, 2 acyl side, 3 side chain; linkers in the order of their positions; H or OH if unused. Non-standard residues stand in square brackets, D forms with d. Residues, ends and D or L forms follow the SMILES beside them. *: point of attachment. Adamantane1carbonyl = O=C(C12CC3CC(CC(C3)C1)C2)*; X1 = O=C(C12CC3CC(CC(N[*:1])(C3)C1)C2)[*:2]

What was measured:
[1] = tested on: BT-549; assay: Anticancer activity against EZH2 dependent human BT-549 cells assessed as cell growth inhibition by MTT assay; format: functional
[2] = tested on: SU-DHL-8; assay: Anticancer activity against EZH2 dependent human SU-DHL-8 cells assessed as cell growth inhibition by MTT assay; format: functional
[3] = tested on: HCC1187; assay: Anticancer activity against EZH2 dependent human HCC1187 cells assessed as cell growth inhibition by MTT assay; format: functional
[4] = tested on: HCC1954; assay: Anticancer activity against EZH2 dependent human HCC1954 cells assessed as cell growth inhibition by MTT assay; format: functional
[5] = tested on: HCC70; assay: Anticancer activity against EZH2 dependent human HCC70 cells assessed as cell growth inhibition by MTT assay; format: functional
[6] = tested on: MCF7; assay: Anticancer activity against EZH2 dependent human MCF7 cells assessed as cell growth inhibition by MTT assay; format: functional
[7] = tested on: KARPAS-422; assay: Anticancer activity against EZH2 dependent human KARPAS-422 cells assessed as cell growth inhibition by MTT assay; format: functional
[8] = target: ALK tyrosine kinase receptor (Homo sapiens, UniProt Q9UM73); assay: Induction of ALK (unknown origin) degradation
Sequence of ALK tyrosine kinase receptor (Q9UM73 whole entry): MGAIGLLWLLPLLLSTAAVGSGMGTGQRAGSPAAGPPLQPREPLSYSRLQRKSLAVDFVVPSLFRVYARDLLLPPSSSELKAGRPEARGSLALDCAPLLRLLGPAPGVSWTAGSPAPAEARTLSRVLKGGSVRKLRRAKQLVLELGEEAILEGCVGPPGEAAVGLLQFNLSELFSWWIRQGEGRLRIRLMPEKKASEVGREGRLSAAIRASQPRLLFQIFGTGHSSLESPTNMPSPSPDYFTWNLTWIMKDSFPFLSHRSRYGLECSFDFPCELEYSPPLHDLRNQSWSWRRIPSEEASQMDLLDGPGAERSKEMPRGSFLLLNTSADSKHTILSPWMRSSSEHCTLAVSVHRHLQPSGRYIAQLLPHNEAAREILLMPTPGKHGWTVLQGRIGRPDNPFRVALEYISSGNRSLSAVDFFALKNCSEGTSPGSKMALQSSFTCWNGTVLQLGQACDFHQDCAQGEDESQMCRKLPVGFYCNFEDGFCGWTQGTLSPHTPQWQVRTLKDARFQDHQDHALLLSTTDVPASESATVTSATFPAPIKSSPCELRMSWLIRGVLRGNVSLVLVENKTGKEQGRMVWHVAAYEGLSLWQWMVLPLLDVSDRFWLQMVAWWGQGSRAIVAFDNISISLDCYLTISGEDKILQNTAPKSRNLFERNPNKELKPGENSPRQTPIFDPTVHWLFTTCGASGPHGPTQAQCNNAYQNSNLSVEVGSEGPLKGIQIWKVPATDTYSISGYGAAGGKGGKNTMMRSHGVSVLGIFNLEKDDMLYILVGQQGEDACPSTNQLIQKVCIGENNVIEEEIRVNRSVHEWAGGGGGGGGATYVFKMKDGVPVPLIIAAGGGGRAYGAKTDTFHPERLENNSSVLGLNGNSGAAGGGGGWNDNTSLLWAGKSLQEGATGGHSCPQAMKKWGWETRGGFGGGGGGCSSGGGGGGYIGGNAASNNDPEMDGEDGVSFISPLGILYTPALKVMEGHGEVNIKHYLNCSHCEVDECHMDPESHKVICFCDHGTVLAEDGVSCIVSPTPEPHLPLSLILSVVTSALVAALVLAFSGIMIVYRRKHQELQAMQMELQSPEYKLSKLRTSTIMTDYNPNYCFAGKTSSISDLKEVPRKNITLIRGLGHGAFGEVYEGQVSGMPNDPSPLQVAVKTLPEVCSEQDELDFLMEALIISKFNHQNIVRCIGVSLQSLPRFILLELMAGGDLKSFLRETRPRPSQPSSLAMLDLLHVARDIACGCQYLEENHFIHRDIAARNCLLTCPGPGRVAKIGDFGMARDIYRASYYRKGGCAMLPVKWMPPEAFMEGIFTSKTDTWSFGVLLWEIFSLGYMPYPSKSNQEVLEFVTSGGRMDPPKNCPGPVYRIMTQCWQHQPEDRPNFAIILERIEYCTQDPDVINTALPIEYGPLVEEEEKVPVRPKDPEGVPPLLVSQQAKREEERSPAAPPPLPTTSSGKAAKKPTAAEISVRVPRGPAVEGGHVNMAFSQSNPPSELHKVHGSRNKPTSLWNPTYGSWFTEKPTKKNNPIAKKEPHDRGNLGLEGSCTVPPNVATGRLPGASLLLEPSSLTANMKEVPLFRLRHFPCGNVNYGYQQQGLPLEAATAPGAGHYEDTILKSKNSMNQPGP

[9] = target: T1, Glutathione S-transferase A1 (Homo sapiens) (UniProt P08263); assay: Induction of GSTAlpha1 degradation in human HeLa cells at 80 uM measured after 4 hrs relative to control; format: cell-based
T1 sequence (whole entry): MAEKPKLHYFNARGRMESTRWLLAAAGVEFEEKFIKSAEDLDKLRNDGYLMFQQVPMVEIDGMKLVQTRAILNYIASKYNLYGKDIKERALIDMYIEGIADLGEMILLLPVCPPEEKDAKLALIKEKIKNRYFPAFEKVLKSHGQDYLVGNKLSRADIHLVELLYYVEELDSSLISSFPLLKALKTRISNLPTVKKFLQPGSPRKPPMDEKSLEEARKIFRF

[10] = target: T2, Dihydrofolate reductase (Escherichia coli) (UniProt P0ABQ4); assay: Induction of Escherichia coli DHFR degradation in […] cells at 80 uM measured after 4 hrs; format: cell-based
T2 sequence (whole entry): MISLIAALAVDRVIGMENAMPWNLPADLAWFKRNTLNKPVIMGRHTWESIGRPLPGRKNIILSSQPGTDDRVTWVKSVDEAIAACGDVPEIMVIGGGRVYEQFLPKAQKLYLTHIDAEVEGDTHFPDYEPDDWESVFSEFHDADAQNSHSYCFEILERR

[11] = target: T1, Glutathione S-transferase A1 (Homo sapiens); assay: Induction of GSTAlpha1 degradation in […] cells at 40 uM measured after 4 hrs; format: cell-based
[12] = tested on: NCI-H3122; assay: Anticancer activity against human NCI-H3122 cells xenografted in mouse assessed as tumor growth inhibition at 20 mg/kg, po administered once every two days for 3 weeks relative to control; format: functional; conditions: NCI-H3122, 504 h, read-out: TGI
[13] = target: TAR DNA-binding protein 43 (Mus musculus) (UniProt Q921F2); assay: Induction of TDP-43 degradation in mouse N2a cells at 100 uM measured after 24 hrs by Western blot analysis relative to control; format: cell-based
Sequence of TAR DNA-binding protein 43 (Mus musculus) (Q921F2 whole entry): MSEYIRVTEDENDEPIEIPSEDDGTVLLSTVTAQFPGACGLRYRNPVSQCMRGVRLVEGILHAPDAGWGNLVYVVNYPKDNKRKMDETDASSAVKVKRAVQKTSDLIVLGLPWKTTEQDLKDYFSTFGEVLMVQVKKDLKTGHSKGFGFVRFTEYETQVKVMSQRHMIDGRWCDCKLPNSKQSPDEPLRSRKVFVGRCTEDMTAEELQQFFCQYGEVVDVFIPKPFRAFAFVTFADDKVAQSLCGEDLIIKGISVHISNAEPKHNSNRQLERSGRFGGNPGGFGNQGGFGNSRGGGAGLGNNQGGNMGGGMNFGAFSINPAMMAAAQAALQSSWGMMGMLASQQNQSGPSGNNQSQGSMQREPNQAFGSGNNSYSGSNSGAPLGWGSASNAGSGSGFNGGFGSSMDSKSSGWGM

[14] = target: Microtubule-associated protein tau (Mus musculus) (UniProt P10637); assay: Induction of tau degradation in mouse N2a cells at 150 uM measured after 24 hrs by Western blot analysis relative to control; format: cell-based
Sequence of Microtubule-associated protein tau (Mus musculus) (P10637 whole entry): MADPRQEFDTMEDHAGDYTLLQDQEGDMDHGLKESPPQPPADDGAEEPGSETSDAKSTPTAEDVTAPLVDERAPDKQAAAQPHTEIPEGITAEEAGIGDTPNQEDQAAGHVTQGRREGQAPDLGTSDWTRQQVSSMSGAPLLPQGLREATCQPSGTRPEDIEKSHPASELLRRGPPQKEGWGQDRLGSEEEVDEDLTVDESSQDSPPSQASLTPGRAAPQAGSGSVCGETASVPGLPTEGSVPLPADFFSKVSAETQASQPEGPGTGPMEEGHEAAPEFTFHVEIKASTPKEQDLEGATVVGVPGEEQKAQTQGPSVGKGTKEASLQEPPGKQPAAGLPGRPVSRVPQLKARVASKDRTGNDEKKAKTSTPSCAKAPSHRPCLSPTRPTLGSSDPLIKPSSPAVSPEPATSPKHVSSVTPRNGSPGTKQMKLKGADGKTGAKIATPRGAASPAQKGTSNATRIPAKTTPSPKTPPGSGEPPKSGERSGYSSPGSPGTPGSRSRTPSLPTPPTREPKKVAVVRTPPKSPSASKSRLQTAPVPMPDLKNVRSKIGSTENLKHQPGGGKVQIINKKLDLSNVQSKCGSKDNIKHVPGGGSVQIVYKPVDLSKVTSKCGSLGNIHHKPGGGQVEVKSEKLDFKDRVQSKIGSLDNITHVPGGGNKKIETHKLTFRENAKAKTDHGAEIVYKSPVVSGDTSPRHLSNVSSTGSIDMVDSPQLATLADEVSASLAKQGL

[15] = tested on: OVCAR-8; assay: Antiproliferative activity against HER3 dependent human OVCAR-8 cells assessed as cell viability by CellTiter-Glo Luminescent Assay; format: functional, cell-based
[16] = Antiproliferative activity against HER3 dependent human HCC827 Gefitinib-resistant 6 (GR6) cell assessed as cell viability by CellTiter-Glo Luminescent Assay; format: functional, cell-based
[17] = Antiproliferative activity against HER3 dependent human PC9 Gefitinib-resistant 4 (GR4) cell assessed as cell viability by CellTiter-Glo Luminescent Assay; format: functional, cell-based
[18] = target: RAC-gamma serine/threonine-protein kinase (Homo sapiens, UniProt Q9Y243); assay: Induction of Akt3 (unknown origin) degradation
Sequence of RAC-gamma serine/threonine-protein kinase (Q9Y243 whole entry): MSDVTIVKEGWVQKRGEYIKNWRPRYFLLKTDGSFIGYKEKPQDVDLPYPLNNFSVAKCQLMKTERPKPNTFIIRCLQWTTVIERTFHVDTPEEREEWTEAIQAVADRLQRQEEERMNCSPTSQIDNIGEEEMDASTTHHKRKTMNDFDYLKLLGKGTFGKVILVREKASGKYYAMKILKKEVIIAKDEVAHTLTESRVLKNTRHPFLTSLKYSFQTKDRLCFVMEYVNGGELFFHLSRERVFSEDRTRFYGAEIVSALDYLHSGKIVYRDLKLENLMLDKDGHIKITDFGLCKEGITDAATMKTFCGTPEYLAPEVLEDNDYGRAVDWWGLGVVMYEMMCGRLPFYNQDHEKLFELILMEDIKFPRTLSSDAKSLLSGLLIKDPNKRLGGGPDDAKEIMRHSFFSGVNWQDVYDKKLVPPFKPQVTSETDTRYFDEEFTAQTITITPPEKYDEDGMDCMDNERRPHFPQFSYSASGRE

[19] = target: RAC-alpha serine/threonine-protein kinase (Homo sapiens, UniProt P31749); assay: Induction of Akt1 (unknown origin) degradation
Sequence of RAC-alpha serine/threonine-protein kinase (P31749 whole entry): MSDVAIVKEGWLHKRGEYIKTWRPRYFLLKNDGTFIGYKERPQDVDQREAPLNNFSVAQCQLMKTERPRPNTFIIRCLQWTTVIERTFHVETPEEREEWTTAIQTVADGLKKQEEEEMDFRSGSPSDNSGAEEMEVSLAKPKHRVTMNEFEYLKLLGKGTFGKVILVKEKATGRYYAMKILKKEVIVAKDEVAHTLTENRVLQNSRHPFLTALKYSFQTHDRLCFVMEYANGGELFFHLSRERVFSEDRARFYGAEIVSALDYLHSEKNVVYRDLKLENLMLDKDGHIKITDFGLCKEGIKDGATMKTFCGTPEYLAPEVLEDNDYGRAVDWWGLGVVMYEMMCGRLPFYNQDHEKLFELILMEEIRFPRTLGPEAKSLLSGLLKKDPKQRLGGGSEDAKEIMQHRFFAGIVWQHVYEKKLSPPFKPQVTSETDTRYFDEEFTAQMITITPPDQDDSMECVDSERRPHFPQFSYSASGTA

[20] = tested on: PC-9; assay: Anticancer activity against human PC-9 cells xenografted in NSG mouse assessed as tumor growth inhibition at 20 mg/kg, ip administered once every two days for 14 days relative to control; format: functional; conditions: PC-9, 336 h, time 14 day, read-out: TGI
[21] = Induction of Akt2 (unknown origin) degradation; parameters: species or system Homo sapiens

**Q.** For `Cc1cc(C)c(CNC(=O)c2cc(-c3ccc(N4CCN(CCNC(=O)CC56CC7CC(CC(C7)C5)C6)CC4)nc3)cc3c2cnn3C(C)C)c(=O)[nH]1`, which GI50 [1] is on record?
**A.** 1.1 µM

**Q.** And the GI50 [2]?
**A.** 1.1 µM

**Q.** And the GI50 [3]?
**A.** 1.1 µM

**Q.** And the GI50 [4]?
**A.** 1.1 µM

**Q.** And the GI50 [5]?
**A.** 1.1 µM

**Q.** What about the GI50 [6] of the same molecule?
**A.** 1.1 µM

**Q.** What about the GI50 [7] of the same molecule?
**A.** 1.1 µM

**Q.** Which DC50 [8] does the source give for `Cc1cc(Nc2ncc(Cl)c(Nc3ccccc3S(=O)(=O)C(C)C)n2)c(OC(C)C)cc1C1CCN(CC(=O)NCC2CC3C=CC2C3)CC1` (stereo not drawn) here?
**A.** 0.314 µM

**Q.** For `C=C(CC)C(=O)c1ccc(OCC(=O)O)c(Cl)c1Cl`, which Activity [9] is on record?
**A.** 75%

**Q.** What does the source list for `COc1cc(Cc2cnc(N)nc2N)cc(OC)c1OCC(=O)NCCCCCCNC(=O)[C@@H](CCCN/C(=N\C(=O)OC(C)(C)C)NC(=O)OC(C)(C)C)NC(=O)OC(C)(C)C`?
**A.** Activity [10]: 60%; Activity [11]: 80%

**Q.** What does the source list for `CCc1cc2c(cc1N1CCN(CCCCC(=O)NCC3CC4C=CC3C4)CC1)C(C)(C)c1[nH]c3cc(C#N)ccc3c1C2=O` (stereo not drawn)?
**A.** inhibition in vivo at 20 mg/kg [12]: 58%; DC50 [8]: 0.134 µM

**Q.** For `CC[C@H](C)[C@H](NC(=O)CNC(=O)[C@H](CCCCN)NC(=O)[C@@H](NC(=O)[C@@H](NC(=O)[C@H](CC(C)C)NC(=O)[C@H](CC(=O)O)NC(=O)[C@H](CCC(=O)O)NC(=O)[C@H](CO)NC(=O)CNC(=O)[C@H](CO)NC(=O)CNC(=O)[C@H](CCCCN)NC(=O)C12CC3CC(CC(NC(=O)C45CC6CC(CC(C6)C4)C5)(C3)C1)C2)[C@@H](C)CC)[C@@H](C)CC)C(=O)N[C@@H](CO)C(=O)N[C@H](C(=O)NCC(=O)N[C@@H](CCCNC(=N)N)C(=O)N[C@@H](CCCCN)C(=O)N[C@@H](CCCCN)C(=O)N[C@@H](CCCNC(=N)N)C(=O)N[C@@H](CCCNC(=N)N)C(=O)N[C@@H](CCC(N)=O)C(=O)N[C@@H](CCCNC(=N)N)C(=O)N[C@@H](CCCNC(=N)N)C(=O)N[C@@H](CCCNC(=N)N)C(N)=O)C(C)C` (Adamantane1carbonyl-[X1]KGSGSEDLIIKGISVGRKKRRQRRR-NH2), which Activity [13] is on record?
**A.** 80%

**Q.** Which Activity [14] does the source give for `C[C@H](NC(=O)[C@H](CC(=O)O)NC(=O)[C@H](CCC(N)=O)NC(=O)[C@H](Cc1ccc(O)cc1)NC(=O)[C@H](CCC(N)=O)NC(=O)[C@H](CCC(N)=O)NC(=O)[C@H](Cc1ccc(O)cc1)NC(=O)C12CC3CC(CC(C3)C1)C2)C(=O)N[C@H](C(=O)N[C@@H](C)C(=O)N[C@@H](CC(=O)O)C(=O)N[C@@H](CCC(=O)O)C(=O)N[C@@H](CCC(N)=O)C(=O)NCC(=O)N[C@H](CCCNC(=N)N)C(=O)N[C@H](CCCNC(=N)N)C(=O)N[C@H](CCCNC(=N)N)C(=O)N[C@H](CCCNC(=N)N)C(=O)N[C@H](CCCNC(=N)N)C(=O)N[C@H](CCCNC(=N)N)C(=O)N[C@H](CCCNC(=N)N)C(=O)N[C@H](CCCNC(=N)N)C(N)=O)[C@@H](C)O` here?
**A.** 88%

**Q.** With `C=CC(=O)Nc1cc(-c2nn(C3CCN(CCNC(=O)[C@H](C)CCC45CC6CC(CC(C6)C4)C5)CC3)c3ncnc(N)c23)ccc1Oc1ccccc1` as the molecule, how does the EC50 [15] read?
**A.** 0.8 µM

**Q.** And the EC50 [16]?
**A.** 0.8 µM

**Q.** And the EC50 [17]?
**A.** 0.8 µM

**Q.** Which DC50 [18] does the source give for `COc1cc(N2CCN(CCCCCCCCCCCCNC(=O)CC34CC5CC(CC(C5)C3)C4)CC2)ccc1Nc1ncc2c(C)cc(=O)n(-c3cccc(NC(=O)C4CC4)c3)c2n1` here?
**A.** 0.013 µM

**Q.** What about the DC50 [19] of the same molecule?
**A.** > 1 µM

**Q.** What about the inhibition in vivo at 20 mg/kg [20] of the same molecule?
**A.** 75%

**Q.** What about the DC50 [21] of the same molecule?
**A.** > 1 µM

**Q.** Which DC50 [8] does the source give for `COc1cc(N2CCN(CC(=O)NCC3CC4C=CC3C4)CC2)ccc1Nc1ncc(Cl)c(Nc2ccccc2P(C)(C)=O)n1` (stereo not drawn) here?
**A.** 0.089 µM
